Results published in patent US20240116985A1, “STAPLED PEPTIDES AND METHODS THEREOF” (priority 2020, published 2024).

Each molecule was assayed against T1, full-length beta-Catenin (Uniprot ID P35222) (Homo sapiens, UniProt P35222) (assay: Fluorescence polarization IC50 (beta-catenin / 5FAM-TCF4 10-53 competition)). Details: beta-Catenin FP IC50 (nM), fluorescence polarization.
T1 construct: 10 nM full-length beta-Catenin (Uniprot ID P35222)
T1 sequence (P35222 1-781): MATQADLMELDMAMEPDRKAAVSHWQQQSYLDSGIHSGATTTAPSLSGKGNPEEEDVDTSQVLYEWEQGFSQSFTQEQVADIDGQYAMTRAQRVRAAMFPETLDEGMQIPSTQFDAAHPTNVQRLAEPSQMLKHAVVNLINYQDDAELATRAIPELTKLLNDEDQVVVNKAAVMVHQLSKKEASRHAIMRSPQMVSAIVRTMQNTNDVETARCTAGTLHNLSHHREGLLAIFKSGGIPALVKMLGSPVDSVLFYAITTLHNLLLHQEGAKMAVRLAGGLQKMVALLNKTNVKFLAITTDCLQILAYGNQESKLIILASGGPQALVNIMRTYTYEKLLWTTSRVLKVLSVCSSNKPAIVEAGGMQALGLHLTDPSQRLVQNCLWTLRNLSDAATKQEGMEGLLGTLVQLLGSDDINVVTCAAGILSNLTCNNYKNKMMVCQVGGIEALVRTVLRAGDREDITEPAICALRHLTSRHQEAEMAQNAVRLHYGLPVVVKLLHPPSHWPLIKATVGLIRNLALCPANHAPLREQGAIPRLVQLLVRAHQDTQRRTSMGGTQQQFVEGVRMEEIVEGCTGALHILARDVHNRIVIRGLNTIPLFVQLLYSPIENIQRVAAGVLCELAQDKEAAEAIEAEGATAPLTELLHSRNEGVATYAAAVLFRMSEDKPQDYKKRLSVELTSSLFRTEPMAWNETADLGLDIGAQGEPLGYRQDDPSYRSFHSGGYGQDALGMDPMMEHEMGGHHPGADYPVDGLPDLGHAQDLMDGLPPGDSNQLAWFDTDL
Assay type: binding

SMILES	IC50
CC(=O)N1CCC[C@]12CC=CCCCC1(CCCC=CCCCOC(=O)N3CC[C@@](C(=O)N[C@@H](Cc4ccsc4)C(=O)N[C@@H](Cc4csc5ccccc45)C(=O)N[C@@H](CCC(N)=O)C(N)=O)(C3)NC(=O)[C@H](CC(C)C)NC(=O)[C@H](Cc3ccccc3)NC(=O)[C@H](C)NC(=O)[C@H](C)NC(=O)[C@H](CC(=O)OCCSSc3ccccc3)NC(=O)[C@H](CC(=O)O)NC1=O)NC(=O)[C@H](CC(C)(C)C)NC(=O)[C@H](CC(=O)O)NC2=O (stereo partly drawn) [I-1956, Ac-PL3-Asp-Npg-B5-Asp-[EtSSPh]AspE-Ala-Ala-Phe-Leu-PyrS2-3Thi-BztA-Gln-NH2]	849 nM

Same assay, conditions: fluorescence polarization; read-out: beta-Catenin FP IC50

SMILES	IC50
CC(C)C[C@@H]1NC(=O)[C@H](Cc2ccccc2)NC(=O)[C@H](C)NC(=O)[C@H](C)NC(=O)[C@H](Cc2cccc(C(=O)O)c2)NC(=O)[C@H](CC(=O)O)NC(=O)C2(CCCC=CCCCOC(=O)N3CC[C@@](C(=O)N[C@@H](Cc4ccccc4Cl)C(=O)N[C@@H](Cc4csc5ccccc45)C(=O)N[C@@H](CCC(N)=O)C(N)=O)(C3)NC1=O)CCCC=CCCC(=O)N1CCCC1C(=O)N[C@@H](CC(=O)O)C(=O)N[C@@H](CC(C)(C)C)C(=O)N2 (stereo partly drawn) [I-1984, ProAm5-Asp-Npg-B5-Asp-3COOHF-Ala-Ala-Phe-Leu-PyrS2-2C1F-BztA-Gln-NH2]	320 nM
CC(=O)N1CCC[C@]12CC=CCCCC1(CCCC=CCCCOC(=O)N3CC[C@@](C(=O)N[C@@H](Cc4ccsc4)C(=O)N[C@@H](Cc4c[nH]c5cccc(Cl)c45)C(=O)N[C@@H](CCC(N)=O)C(N)=O)(C3)NC(=O)[C@H](CC(N)=O)NC(=O)[C@H](Cc3ccccc3)NC(=O)[C@H](C)NC(=O)[C@H](C)NC(=O)[C@H](CC(=O)O)NC(=O)[C@H](CC(=O)O)NC1=O)NC(=O)[C@H](CC(C)(C)C)NC(=O)[C@H](CC(=O)O)NC2=O (stereo partly drawn) [I-2176, Ac-PL3-Asp-Npg-B5-Asp-Asp-Ala-Ala-Phe-Asn-PyrS2-3Thi-4C1W-Gln-NH2]	87 nM
CC(=O)N1CCC[C@]12CC=CCCCCC1(CCCCC=CCCOC(=O)N3CC[C@@](C(=O)N[C@@H](Cc4ccccc4C(F)(F)F)C(=O)N[C@@H](Cc4csc5ccccc45)C(=O)N[C@@H](CCC(N)=O)C(N)=O)(C3)NC(=O)[C@H](CC(C)C)NC(=O)[C@H](Cc3ccccc3)NC(=O)[C@H](C)NC(=O)[C@H](C)NC(=O)[C@H](Cc3cccc(C(=O)O)c3)NC(=O)[C@H](CC(=O)O)NC1=O)NC(=O)[C@H](CC(C)(C)C)NC(=O)[C@H](CC(=O)O)NC2=O (stereo partly drawn) [I-2509, Ac-PL3-Asp-Npg-B6-Asp-3COOHF-Ala-Ala-Phe-Leu-PyrS1-2F3MeF-BztA-Gln-NH2]	17 nM
CC(=O)N1CCC[C@]12CC=CCCCC1(CCCC=CCCCOC(=O)N3CC[C@@](C(=O)N[C@@H](Cc4cccc(Cl)c4)C(=O)N[C@@H](Cc4csc5ccccc45)C(=O)N[C@@H](CCC(N)=O)C(N)=O)(C3)NC(=O)[C@H](CC(N)=O)NC(=O)[C@H](Cc3ccccc3)NC(=O)[C@H](C)NC(=O)[C@H](C)NC(=O)[C@H]([C@@H](C)O)NC(=O)[C@H](CC(N)=O)NC1=O)NC(=O)[C@H](CC(C)(C)C)NC(=O)[C@H](CC(=O)O)NC2=O (stereo partly drawn) [I-2001, Ac-PL3-Asp-Npg-B5-Asn-Thr-Ala-Ala-Phe-Asn-PyrS2-3C1F-BztA-Gln-NH2]	4450 nM
CC(=O)N1CCC[C@]12CC=CCCCC1(CCCC=CCCCOC(=O)N3CC(C(=O)N[C@@H](Cc4ccccc4C(F)(F)F)C(=O)N[C@@H](Cc4csc5ccccc45)C(=O)N[C@@H](CCC(N)=O)C(N)=O)(C3)NC(=O)[C@H](CC(C)C)NC(=O)[C@H](Cc3ccccc3)NC(=O)[C@H](C)NC(=O)[C@H](C)NC(=O)[C@H](Cc3cccc(C(=O)O)c3)NC(=O)[C@H](CC(=O)O)NC1=O)NC(=O)[C@H](CC(C)(C)C)NC(=O)[C@H](CC(=O)O)NC2=O (stereo partly drawn) [I-2610, Ac-PL3-Asp-Npg-B5-Asp-3COOHF-Ala-Ala-Phe-Leu-Az2-2F3MeF-BztA-Gln-NH2]	215 nM
CC(=O)N1CCC[C@]12CC=CCCCC1(CCCC=CCCCOC(=O)N3CC(C(=O)N[C@@H](Cc4ccsc4)C(=O)N[C@@H](Cc4csc5ccccc45)C(=O)N[C@@H](CCC(N)=O)C(N)=O)(C3)NC(=O)[C@H](CC(C)C)NC(=O)[C@H](Cc3ccccc3)NC(=O)[C@H](C)NC(=O)C(C)(C)NC(=O)[C@H](Cc3cccc(C(=O)O)c3)NC(=O)[C@H](CC(=O)O)NC1=O)NC(=O)[C@H](CC(C)(C)C)NC(=O)[C@H](CC(=O)O)NC2=O (stereo partly drawn) [I-2617, Ac-PL3-Asp-Npg-B5-Asp-3COOHF-Aib-Ala-Phe-Leu-Az2-3Thi-BztA-Gln-NH2]	130 nM

Second part, the molecule after the results:

IC50	SMILES
8400 nM	CC(=O)N1CCC[C@]12CC=CCCCC1(CCCC=CCCCCC[C@@](C)(C(=O)N[C@@H](Cc3ccsc3)C(=O)N[C@@H](Cc3csc4ccccc34)C(=O)N[C@@H](CCC(N)=O)C(N)=O)NC(=O)[C@H](CC(N)=O)NC(=O)[C@H](Cc3ccccc3)NC(=O)[C@H](C)NC(=O)[C@H](C)NC(=O)[C@H]([C@@H](C)O)NC(=O)[C@H](CC(N)=O)NC1=O)NC(=O)[C@H](CC(C)(C)C)NC(=O)[C@H](CC(=O)O)NC2=O (stereo partly drawn) [I-2200, Ac-PL3-Asp-Npg-B5-Asn-Thr-Ala-Ala-Phe-Asn-S7-3Thi-BztA-Gln-NH2]
597 nM	CC(=O)N1CCC[C@]12CCCCCCC1(CCCCCCCCOC(=O)N3CC[C@@](C(=O)N[C@@H](Cc4ccccc4C#N)C(=O)N[C@@H](Cc4csc5ccccc45)C(=O)N[C@@H](CCC(N)=O)C(N)=O)(C3)NC(=O)[C@H](CC(C)C)NC(=O)[C@H](Cc3ccccc3)NC(=O)[C@H](C)NC(=O)[C@H](C)NC(=O)[C@H](CN(CC(=O)O)CC(F)(F)F)NC(=O)[C@H](CC(=O)O)NC1=O)NC(=O)[C@H](CC(C)(C)C)NC(=O)[C@H](CC(=O)O)NC2=O (stereo partly drawn) [I-1712, Ac-PL3-Asp-Npg-B5-Asp-TfeGA-Ala-Ala-Phe-Leu-PyrS2-2CNF-BztA-Gln-NH2]
368 nM	CC(=O)N1CCC[C@]12CC=CCCCC1(CCCC=CCCCOC(=O)N3CC[C@@](C(=O)N[C@@H](Cc4ccsc4)C(=O)N[C@@H](Cc4csc5ccccc45)C(=O)N[C@@H](CCC(N)=O)C(N)=O)(C3)NC(=O)[C@H](CC(N)=O)NC(=O)[C@H](Cc3ccccc3)NC(=O)[C@H](C)NC(=O)[C@H](C)NC(=O)[C@H](CC(N)=O)NC(=O)[C@H](CCC(N)=O)NC1=O)NC(=O)[C@H](CC(C)(C)C)NC(=O)[C@H](CC(=O)O)NC2=O (stereo partly drawn) [I-1560, Ac-PL3-Asp-Npg-B5-Gln-Asn-Ala-Ala-Phe-Asn-PyrS2-3Thi-BztA-Gln-NH2]
203 nM	CC(=O)N1CCC[C@]12CC=CCCCC1(CCCC=CCCCOC(=O)N3CC[C@@](C(=O)N[C@@H](Cc4ccsc4)C(=O)N[C@@H](Cc4cccc(F)c4F)C(=O)N[C@@H](CO)C(N)=O)(C3)NC(=O)[C@H](CC(C)C)NC(=O)[C@H](Cc3ccccc3)NC(=O)[C@H](C)NC(=O)[C@H](C)NC(=O)[C@H](CC(=O)O)NC(=O)[C@H](CC(=O)O)NC1=O)NC(=O)[C@H](CC(C)(C)C)NC(=O)[C@H](CC(=O)O)NC2=O (stereo partly drawn) [I-1426, Ac-PL3-Asp-Npg-B5-Asp-Asp-Ala-Ala-Phe-Leu-PyrS2-3Thi-23FF-Ser-NH2]
24 nM	CC(=O)N1CCC[C@]12CC=CCCCC1(CCCC=CCCCOC(=O)N3CC[C@@](C(=O)N[C@@H](CC4CCCC4)C(=O)N[C@@H](Cc4csc5ccccc45)C(=O)N[C@@H](CCC(N)=O)C(N)=O)(C3)NC(=O)[C@H](CC(C)C)NC(=O)[C@H](Cc3ccccc3)NC(=O)[C@H](C)NC(=O)[C@H](C)NC(=O)[C@H](CN(CC(=O)O)CC(F)(F)F)NC(=O)[C@H](CC(=O)O)NC1=O)NC(=O)[C@H](CC(C)(C)C)NC(=O)[C@H](CC(=O)O)NC2=O (stereo partly drawn) [I-1703, Ac-PL3-Asp-Npg-B5-Asp-TfeGA-Ala-Ala-Phe-Leu-PyrS2-CypA-BztA-Gln-NH2]
18 nM	CC(=O)N1CCC[C@]12CC=CCCCC1(CCCC=CCCCOC(=O)N3CC[C@@](C(=O)N[C@@H](Cc4ccccc4Cl)C(=O)N[C@@H](Cc4csc5ccccc45)C(=O)N[C@H](C)C(N)=O)(C3)NC(=O)[C@H](CC(N)=O)NC(=O)[C@H](Cc3ccccc3)NC(=O)[C@H](C)NC(=O)[C@H](C)NC(=O)[C@H](Cc3cccc(C(=O)O)c3)NC(=O)[C@H](CC(=O)O)NC1=O)NC(=O)[C@H](CC(C)(C)C)NC(=O)[C@H](CC(=O)O)NC2=O (stereo partly drawn) [I-2034, Ac-PL3-Asp-Npg-B5-Asp-3COOHF-Ala-Ala-Phe-Asn-PyrS2-2C1F-BztA-dAla-NH2]
15 nM	CC(=O)N1CCC[C@]12CC=CCCCC1(CCCC=CCCCOC(=O)N3CC[C@@](C(=O)N[C@@H](Cc4ccsc4)C(=O)N[C@@H](Cc4csc5ccccc45)C(=O)N[C@@H](CCC(N)=O)C(N)=O)(C3)NC(=O)[C@H](CC(C)C)NC(=O)[C@H](Cc3ccccc3)NC(=O)[C@H](C)NC(=O)[C@H](C)NC(=O)[C@H](CN(CC(=O)O)CC(F)(F)F)NC(=O)[C@H](CC(=O)O)NC1=O)NC(=O)[C@H](CC1CCCCC1)NC(=O)[C@H](CC(=O)O)NC2=O (stereo partly drawn) [I-1775, Ac-PL3-Asp-Cha-B5-Asp-TfeGA-Ala-Ala-Phe-Leu-PyrS2-3Thi-BztA-Gln-NH2]
